14 molecules from ChEMBL document CHEMBL1137802, “Specific antioxidant activity of caffeoyl derivatives and other natural phenolic compounds: LDL protection against oxidation and decrease in the proinflammatory lysophosphatidylcholine production” (J Nat Prod, 2001) can be followed below.

Active and inactive are the calls of the source. The rule behind the calls is not given here.

Type in all cases: functional, cell-free
Test [1] can be described thus: Antioxidant activity against Cu2+-induced lipid peroxidation in human plasma LDL preincubated for 1 hr before Cu2+ challenge.
The nature of test [2]: Antioxidant activity against AAPH-induced lipid peroxidation in human plasma LDL preincubated for 1 hr before AAPH challenge.
The nature of test [3]: Antioxidant activity against AAPH-induced lipid peroxidation in human plasma LDL at 0.01 to 0.1 umol/L preincubated for 1 hr before AAPH challenge.
Test [4] in a line: Antioxidant activity against Cu2+-induced lipid peroxidation in human plasma LDL at 0.01 to 0.1 umol/L preincubated for 1 hr before Cu2+ challenge.
Test [5] can be described thus: Antioxidant activity against AAPH-induced lipid peroxidation in human plasma LDL at 0.2 umol/L preincubated for 1 hr before AAPH challenge.
A short description of test [6]: Antioxidant activity against AAPH-induced lipid peroxidation in human plasma LDL at 1 umol/L preincubated for 1 hr before AAPH challenge.

Take `O=C(O)/C=C/c1ccc(O)cc1`: the Activity in test [1] is 0.6 µM/L. For `O=C(O)/C=C/c1ccc(O)c(O)c1`, the Activity was 54 µM/L in test [1] and 73.6 µM/L in test [2]. For `O=C(O)c1ccc(O)c(O)c1`, the result in test [3] and in test [4] was Active. Regarding `O=C(/C=C/c1ccc(O)c(O)c1)O[C@@H]1C[C@](O)(C(=O)O)C[C@@H](O)[C@H]1O`, the results for the Activity in test [1] and in test [2] were 156 µM/L and 55.3 µM/L, respectively. VITAMIN E came in with an Activity in test [1] of 7.2 µM/L. With `Oc1cc(O)c2c(c1)OC(c1ccc(O)c(O)c1)C(O)C2` (stereo unspecified), the Activity amounted to 34.6 µM/L in test [1] and 156 µM/L in test [2].

Consider `COc1cc(/C=C/C(=O)O)ccc1O`, for which the Activity in test [1] was determined as 8.5 µM/L. Consider `CC(=O)Oc1ccccc1C(=O)O`, for which the outcome in test [1] was inactive. In test [1], `Oc1cc(O)c2c(c1)O[C@H](c1ccc(O)c(O)c1)[C@H](O)C2` registered an Activity of 37.1 µmol/L. Turning to `O=C(/C=C/c1ccc(O)c(O)c1)OC(C(=O)O)C(O)C(=O)O` (stereo unspecified), the Activity in test [1] came out at 125 µM/L. As to `O=C(O)c1cc(O)c(O)c(O)c1`, the result in test [3] and in test [4] was Active. Moreover, the Activity in test [5] was determined as 90 µM/L; in test [6], 30 µM/L.

Regarding `O=C(O)c1ccccc1O`, in test [1], the outcome was inactive. Turning to `O=C(/C=C/c1ccc(O)c(O)c1)O[C@H](Cc1ccc(O)c(O)c1)C(=O)O`, the Activity in test [1] was found to be 150 µM/L. As for `COc1cc(/C=C/C(=O)O)cc(OC)c1O`, the Activity in test [1] came to 47.4 µM/L.
